From US20030104507A1, “Method for detection of ATP” (priority 2001, published 2003)

Tested on: ATPase activity endogenous to L929 cell lysate
Test: Detergent inhibition of ATPase endogenous to L929 cell lysate (ATP remaining by luciferase luminescence, 22° C.)
Format: biochemical
Set-up: key to Relative ATPase Activity, slope det/slope lysate: slope with detergent / slope without; ≥1.0 = 100% activity, 0.5 = 50%
Procedure, shortened: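 L929 lysate (1.5×10^5 cells/ml, four freeze–thaw cycles) held with detergent at final 1.0, 0.5, 0.1 or 0.05% at 22° C; remaining ATP read over time with luciferase-luciferin reagent (100 μM luciferin, 10 mM MgSO4, pH 7.5). Relative ATPase activity = slope of log % ATP remaining vs time with detergent ÷ slope for lysate-only control.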

[1] = 0.50 percent detergent, second 0.50 line of DTAB (assayed on two days)
[2] = Example 2, 0.02% detergent, 5 min
[3] = Example 2, 0.02% detergent, 75 min
[4] = Example 2, 0.02% detergent, 169 min
[5] = Example 2, 0.02% detergent, 222 min
[6] = Example 2, 0.02% detergent, 260 min
[7] = Example 2, 0.5% detergent, 5 min
[8] = Example 2, 0.5% detergent, 75 min
[9] = Example 2, 0.5% detergent, 169 min
[10] = Example 2, 0.5% detergent, 222 min
[11] = Example 2, 0.5% detergent, 260 min

SMILES: CCCCCCCCCCCC[N+](C)(C)C.[Br-] [DTAB, dodecyltrimethylammonium bromide]
- Relative ATPase Activity, slope det/slope lysate (0.02 percent detergent): 0.884
- Slope (log percent ATP remaining vs time in minutes) (0.02 percent detergent): −0.0056
- Average Relative Light Unit Values (0.05% detergent, 5 min): 6487.93 rlu
- Percent ATP Remaining (0.05% detergent, 5 min): 100%
- Average Relative Light Unit Values (0.05% detergent, 75 min): 3138.81 rlu
- Percent ATP Remaining (0.05% detergent, 75 min): 48.4%
- Average Relative Light Unit Values (0.05% detergent, 169 min): 1496.01 rlu
- Percent ATP Remaining (0.05% detergent, 169 min): 23.1%
- Average Relative Light Unit Values (0.05% detergent, 222 min): 943.40 rlu
- Percent ATP Remaining (0.05% detergent, 222 min): 14.5%
- Average Relative Light Unit Values (0.05% detergent, 260 min): 638.30 rlu
- Percent ATP Remaining (0.05% detergent, 260 min): 9.8%
- Relative ATPase Activity, slope det/slope lysate (0.05 percent detergent): 0.690
- Slope (log percent ATP remaining vs time in minutes) (0.05 percent detergent): −0.0039
- Average Relative Light Unit Values (0.1% detergent, 5 min): 6991.01 rlu
- Percent ATP Remaining (0.1% detergent, 5 min): 100%
- Average Relative Light Unit Values (0.1% detergent, 75 min): 4753.46 rlu
- Percent ATP Remaining (0.1% detergent, 75 min): 68.0%
- Average Relative Light Unit Values (0.1% detergent, 169 min): 2737.36 rlu
- Percent ATP Remaining (0.1% detergent, 169 min): 39.2%
- Average Relative Light Unit Values (0.1% detergent, 222 min): 1950.95 rlu
- Percent ATP Remaining (0.1% detergent, 222 min): 27.9%
- Average Relative Light Unit Values (0.1% detergent, 260 min): 1408.18 rlu
- Percent ATP Remaining (0.1% detergent, 260 min): 20.1%
- Relative ATPase Activity, slope det/slope lysate (0.10 percent detergent): 0.480
- Slope (log percent ATP remaining vs time in minutes) (0.10 percent detergent): −0.0027
- Percent ATP Remaining (0.5% (1), 5 min): 100%
- Percent ATP Remaining (0.5% (1), 75 min): 90.6%
- Percent ATP Remaining (0.5% (1), 169 min): 88.0%
- Percent ATP Remaining (0.5% (1), 222 min): 87.3%
- Percent ATP Remaining (0.5% (1), 260 min): 80.2%
- Percent ATP Remaining (0.5% (2), 5 min): 100%
- Percent ATP Remaining (0.5% (2), 75 min): 95.8%
- Percent ATP Remaining (0.5% (2), 169 min): 90.3%
- Percent ATP Remaining (0.5% (2), 222 min): 88.0%
- Percent ATP Remaining (0.5% (2), 260 min): 85.0%
- Average Relative Light Unit Values (0.5% (day 1), 5 min): 5630.61 rlu
- Average Relative Light Unit Values (0.5% (day 1), 75 min): 5100.09 rlu
- Average Relative Light Unit Values (0.5% (day 1), 169 min): 4957.48 rlu
- Average Relative Light Unit Values (0.5% (day 1), 222 min): 4916.46 rlu
- Average Relative Light Unit Values (0.5% (day 1), 260 min): 4515.20 rlu
- Average Relative Light Unit Values (0.5% (day 2), 5 min): 6617.08 rlu
- Average Relative Light Unit Values (0.5% (day 2), 75 min): 6341.09 rlu
- Average Relative Light Unit Values (0.5% (day 2), 169 min): 5977.33 rlu
- Average Relative Light Unit Values (0.5% (day 2), 222 min): 5824.18 rlu
- Average Relative Light Unit Values (0.5% (day 2), 260 min): 5622.12 rlu
- Relative ATPase Activity, slope det/slope lysate (0.50 percent detergent): 0.055
- Slope (log percent ATP remaining vs time in minutes) (0.50 percent detergent): −0.0003
- Relative ATPase Activity, slope det/slope lysate [1]: 0.048
- Slope (log percent ATP remaining vs time in minutes) [1]: −0.0003
- Average Relative Light Unit Values (1.0% detergent, 5 min): 800.61 rlu
- Percent ATP Remaining (1.0% detergent, 5 min): 100%
- Average Relative Light Unit Values (1.0% detergent, 75 min): 693.13 rlu
- Percent ATP Remaining (1.0% detergent, 75 min): 86.6%
- Average Relative Light Unit Values (1.0% detergent, 169 min): 649.41 rlu
- Percent ATP Remaining (1.0% detergent, 169 min): 81.1%
- Average Relative Light Unit Values (1.0% detergent, 222 min): 671.03 rlu
- Percent ATP Remaining (1.0% detergent, 222 min): 83.8%
- Average Relative Light Unit Values (1.0% detergent, 260 min): 645.40 rlu
- Percent ATP Remaining (1.0% detergent, 260 min): 80.6%
- Relative ATPase Activity, slope det/slope lysate (1.00 percent detergent): 0.057
- Slope (log percent ATP remaining vs time in minutes) (1.00 percent detergent): −0.0003
- Average Relative Light Unit Values [2]: 5870.43 rlu
- Percent ATP Remaining [2]: 100.00%
- Average Relative Light Unit Values [3]: 1997.09 rlu
- Percent ATP Remaining [3]: 34.02%
- Average Relative Light Unit Values [4]: 435.05 rlu
- Percent ATP Remaining [4]: 7.41%
- Average Relative Light Unit Values [5]: 329.83 rlu
- Percent ATP Remaining [5]: 5.62%
- Average Relative Light Unit Values [6]: 227.72 rlu
- Percent ATP Remaining [6]: 3.88%
- Average Relative Light Unit Values [7]: 5189.8 rlu
- Percent ATP Remaining [7]: 100.00%
- Average Relative Light Unit Values [8]: 4564.65 rlu
- Percent ATP Remaining [8]: 87.95%
- Average Relative Light Unit Values [9]: 4111.89 rlu
- Percent ATP Remaining [9]: 79.23%
- Average Relative Light Unit Values [10]: 4230.51 rlu
- Percent ATP Remaining [10]: 81.52%
- Average Relative Light Unit Values [11]: 4267.32 rlu
- Percent ATP Remaining [11]: 82.23%
- concentrations which resulted in a 25% or greater decrease in the relative ATPase activity (compared to reactions in the absence of detergent): ≥ 0.05%

SMILES: CCCCCCCCCCCCCCCC[N+](C)(C)C.[Br-] [CTAB, Cetyltrimethylammonium bromide]
- Relative ATPase Activity, slope det/slope lysate (0.02 percent detergent): 0.718
- Slope (log percent ATP remaining vs time in minutes) (0.02 percent detergent): −0.0046
- Average Relative Light Unit Values (0.05% detergent, 5 min): 6525.51 rlu
- Percent ATP Remaining (0.05% detergent, 5 min): 100%
- Average Relative Light Unit Values (0.05% detergent, 75 min): 4029.32 rlu
- Percent ATP Remaining (0.05% detergent, 75 min): 61.7%
- Average Relative Light Unit Values (0.05% detergent, 169 min): 2093.80 rlu
- Percent ATP Remaining (0.05% detergent, 169 min): 32.1%
- Average Relative Light Unit Values (0.05% detergent, 222 min): 1437.67 rlu
- Percent ATP Remaining (0.05% detergent, 222 min): 22.0%
- Average Relative Light Unit Values (0.05% detergent, 260 min): 1002.72 rlu
- Percent ATP Remaining (0.05% detergent, 260 min): 15.4%
- Relative ATPase Activity, slope det/slope lysate (0.05 percent detergent): 0.561
- Slope (log percent ATP remaining vs time in minutes) (0.05 percent detergent): −0.0031
- Average Relative Light Unit Values (0.1% detergent, 5 min): 5104.82 rlu
- Percent ATP Remaining (0.1% detergent, 5 min): 100%
- Average Relative Light Unit Values (0.1% detergent, 75 min): 3607.65 rlu
- Percent ATP Remaining (0.1% detergent, 75 min): 70.7%
- Average Relative Light Unit Values (0.1% detergent, 169 min): 1889.29 rlu
- Percent ATP Remaining (0.1% detergent, 169 min): 37.0%
- Average Relative Light Unit Values (0.1% detergent, 222 min): 1248.51 rlu
- Percent ATP Remaining (0.1% detergent, 222 min): 24.5%
- Relative ATPase Activity, slope det/slope lysate (0.10 percent detergent): 0.507
- Slope (log percent ATP remaining vs time in minutes) (0.10 percent detergent): −0.0028
- Average Relative Light Unit Values (0.5% detergent, 5 min): 0.34 rlu
- Average Relative Light Unit Values (0.5% detergent, 75 min): 0.28 rlu
- Average Relative Light Unit Values (0.5% detergent, 169 min): 0.23 rlu
- Average Relative Light Unit Values (0.5% detergent, 222 min): 0.27 rlu
- Average Relative Light Unit Values (0.5% detergent, 260 min): 0.18 rlu
- Average Relative Light Unit Values (1.0% detergent, 5 min): 0.09 rlu
- Average Relative Light Unit Values (1.0% detergent, 75 min): 0.08 rlu
- Average Relative Light Unit Values (1.0% detergent, 169 min): 0.07 rlu
- Average Relative Light Unit Values (1.0% detergent, 222 min): 0.06 rlu
- Average Relative Light Unit Values (1.0% detergent, 260 min): 0.07 rlu
- times more ATP present in the sample after four hours when the detergent was present than when it was absent (CTAB 0.05%): about four
- Percent ATP Remaining [2]: 100.00%
- Percent ATP Remaining [3]: 43.22%
- Percent ATP Remaining [4]: 15.49%
- Percent ATP Remaining [5]: 9.73%
- Percent ATP Remaining [6]: 6.92%
